In patent US9119842B2, “Therapeutic meso-biliverdin IXα compositions and associated methods” (Utah State University, priority 2012, dated 2015):

Assays:
[1] = biological target: T1, recombinant human liver BVR (Homo sapiens, UniProt P53004); test: BVR enzyme assay (Biliverdin Reduction Kit); format: biochemical; conditions: 10-fold dilution of 100 μg mL^−1, enzyme and NADPH, spectrophotometric 300-800 nm, up to 360 minutes
T1 construct: purchased Sigma-Aldrich (St. Louis, Mo.) CS1100; host or cells: Escherichia coli
T1 sequence (P53004 3-296): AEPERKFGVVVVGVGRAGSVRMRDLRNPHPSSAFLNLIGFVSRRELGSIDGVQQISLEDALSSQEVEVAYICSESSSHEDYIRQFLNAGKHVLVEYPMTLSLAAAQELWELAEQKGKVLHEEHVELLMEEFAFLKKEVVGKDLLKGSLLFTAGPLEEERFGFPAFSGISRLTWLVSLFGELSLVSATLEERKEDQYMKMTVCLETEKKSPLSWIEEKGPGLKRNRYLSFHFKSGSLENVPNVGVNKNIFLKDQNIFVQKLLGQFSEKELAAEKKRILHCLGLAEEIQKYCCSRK
Procedure: The Sigma-Aldrich (St. Louis, Mo.) Biliverdin Reduction Kit (catalog #CS1100) and method was used to determine biliverdin reductase (“BVR”) activities with MBV, BV IXα, or phycocyanobilin as substrates. The kit-supplied enzyme was human liver BVR expressed in a recombinant Escherichia coli strain. Before use, MBV, BV IXα, or phycocyanobilin, each at 100 μg mL^−1 in methanol, were diluted 10-fold in the kit-supplied assay buffer, mixed with enzyme and NADPH, and conversion to mesobilirubin IXα, bilirubin IXα, or phycocyanobilirubin was measured spectrophotometrically between 300 and 800 nm for up to 360 minutes.

[2] = system: pancreata / islet cells of donor rats; test: Islet cell yields after treatment of donor pancreata; format: in vivo, rat (Lewis); conditions: for Islet yield: P<0.05 vs control; for Islet yield at 100 μM relative to 10 μM: 100 μM through the pancreatic duct
Procedure: MBV and BV IXα (obtained from Frontier Scientific, Inc., Logan Utah) (both at 1, 10, or 100 μM) were administered to IVC-dissected animals through the pancreatic duct at 37° C. Control animals received no treatment. Pancreata were removed from donor rats (Lewis, BW>300 g), incubated with University of Wisconsin solution and preserved using the two-layer method. See Ito et al., Improvement of canine islet yield by donor pancreas infusion with a p38MAPK inhibitor, Transplantation 86(2): 321-329 (2008). After 20 to 22 hours, islet cells were isolated using the 2-step digestion method after distention with collagenase and then purified by discontinuous Ficoll gradient centrifugation in a COBE 2991 cell processor. See Matsumoto et al., Improvement of pancreatic islet cell isolation for transplantation, Proc. (Bayl. Univ. Med. Cent.) 20(4): 357-362 (2007). Islet cells were counted microscopically and the numbers converted to IEQ (number of islets equivalent to 150 um in diameter.

[3] = system: transplanted islet cells in recipient rats; test: Treatment of donor pancreata followed by islet cell autotransplantation; format: in vivo, rat (Lewis)
Procedure: Pancreata removed from donor rats (Lewis, BW>300 g) were infused with University of Wisconsin solution containing MBV or BV IXα at 1, 10, or 100 μM through the pancreatic duct and preserved using the 2-layer method in Hank's balanced salt solution containing 5% autologous serum as described in Example 5. After 20 to 22 hours, islets were isolated and 3000 IEQ/kg were autotransplanted by infusion into the portal vein of the corresponding rat.

[4] = system: HRT-18 colon cancer cells; test: HRT-18 colon cancer cell proliferation in vitro; format: cell-based; conditions: 1, 10 and 100 μM vs PBS control; example in present tense
Procedure: (§1) HRT-18 cells are seeded in 6-well plates in a concentration of 25×10^4 cells per well. After 24 hours, incubation, cells are treated with MBV IXα (1, 10, and 100 μM) or phosphate buffered saline (PBS) as a control. Cells are washed, detached with trypsin and resolved in 1 mL of growth media. 100 μL of […] are then analyzed for cell number, viability and cell size. In a xenograft colonic tumor model (see Ollinger et al., Bilirubin Inhibits Tumor Cell Growth via Activation of ERK, Cell Cycle 6:3078-3085 (2007)), 2.5×10^6 HRT 18 colon cancer cells are injected subcutaneously into the lower flank of BALB/c nude mice. At 14 days, MBV treatment is begun by injection of 1, 10 and 100 mg/kg body weight or PBS (controls) twice daily intraperitoneally and tumor diameters are measured daily using a caliper.

[5] = system: HRT 18 colon cancer cells xenograft; test: Xenograft colonic tumor model; format: in vivo, BALB/c nude mice; conditions: 1, 10 and 100 mg/kg twice daily intraperitoneally vs PBS; example in present tense
Procedure: as §1

db/db and obese mice = test: Glucose tolerance in type 2 diabetes, db/db and obese mice; format: in vivo; conditions: example in present tense
Procedure: MBV (2, 20 and 100 mg kg^−1 daily) is orally administered to 5-week-old db/db and obese mice for 4 weeks. Control mice are given the same feed without added MBV. After 4 weeks, glucose tolerance and insulin tolerance tests are performed. See Ikeda et al., Biliverdin protects against the deterioration of glucose tolerance in db/db mice, Diabetologia 54:2183-2191 (2011). Insulin content is evaluated by immunostaining and ELISA. Oxidative stress markers (8-hydroxy-2′-deoxyguansosine and dihydroethidium staining) and expression of […] are evaluated in isolated islets.

[6] = system: Rat thoracic aortic vascular smooth muscle (A7r5) cells; test: Suppression of angiotensin II-induced inflammation in A7r5 cells (superoxide anion, NADH/NADPH oxidase); format: cell-based; conditions: angiotensin II-treated A7r5 cells; example in present tense
Procedure: Rat thoracic aortic vascular smooth muscle (A7r5) cells cultured in Dulbecco's modified Eagle's medium supplemented with 10% fetal calf serum and 2 mM glutamine are exposed to various concentrations of angiotensin II and MBV for various lengths of time before harvesting. The cells are scraped into balanced salt solution, washed twice by centrifugation, and finally suspended at a density of 2×10^6 cells per mL in the same solution containing 10 mM glucose and 1 mg per mL bovine serum albumin. Superoxide anion levels (of suspensions with 9×10^5 cells) are measured with a luminometer and a commercial luminogen-based detection kit (LumiMax, Agilent Technologies. Inc.).
Angiotensin II and MBV-treated cells suspended in phosphate-buffered saline (with protease inhibitors) are disrupted at ice temperature using a Dounce homogenizer. The cell extracts are fractionated into microsomal membrane and cytosol fractions by standard differential centrifugation procedures. Microsomes, containing plasma and mitochondrial membranes, are recovered as pellets after centrifugation at 29,100 g for 20 min at 4° C. NADH/NADPH oxidase activities of the microsomal fractions are measured with a luminometer and a commercial luminogen-based kit (LumiMax, Agilent Technologies. Inc.).

[7] = 1 μM through the pancreatic duct
[8] = 10 μM through the pancreatic duct
[9] = infusion of pancreata through the duct before preservation

Compound	BVR activity with the compound as substrate (conversion to reduced product) [1]	Increase of islet yield over non-treated controls ([2]; 1 μM) [fold]	Islet yield [2, 7] [IEQ/g]	Increase of islet yield over non-treated controls ([2]; 10 μM) [fold]	Islet yield [2, 8] [IEQ/g]	Islet yield at 100 μM relative to 10 μM [2]	Islet cell yields (IEQ values) assessed by laser scanning cytometry ([3]; MBV-treated donor pancreata vs untreated control pancreata)	Tumor necrosis factor α expression (real-time RT-PCR) ([3]; MBV-treated group vs controls)	Plasma C peptide levels after glucagon challenge ([3]; animals receiving MBV-treated islets vs islets from untreated control pancreata)	Adverse effect on islet function [3, 9]	Islet cell apoptosis [3, 9]	Glycemia of recipient rats ([3]; rats transplanted with MBV-treated islets vs untreated islets)	HRT-18 colonic cell proliferation in vitro [4]	Xenograft tumor formation in vivo [5]	Development of hyperglycemia and glucose intolerance (db/db and obese mice; 2, 20 and 100 mg kg^−1 daily orally, 4 weeks)	Levels of oxidative stress markers and NADPH oxidase activities (db/db and obese mice; oral feeding 4 weeks, compared to controls)	Apoptosis and Bax expression in islets from db/db mice (db/db and obese mice; oral feeding 4 weeks)	Insulin levels and Pdxl expression (db/db and obese mice; oral feeding 4 weeks)	Angiotensin II-induced inflammatory processes (NADH/NADPH oxidase activation, superoxide anion production) [6]
meso-biliverdin IXα [MBV]	kinetics that resembled those for BV IXα conversion to bilirubin IXα	1.87	1599±475	1.54	1318±804	did not increase islet yields beyond those with 10 μM concentration	higher	significantly lower	higher	no adverse effect on islet function	prevented islet cell apoptosis	more euglycemic	reduces	reduces	at least partially prevents	lower and normal compared to those of controls	decreases	increases	suppresses these inflammatory processes
C=CC1=C(C)/C(=C\c2[nH]c(/C=C3N=C(/C=C4/NC(=O)C(C)=C4C=C)C(C)=C/3CCC(=O)O)c(CCC(=O)O)c2C)NC1=O [BV IXα, Biliverdin (“BV”) IXα, reference compound]	–	1.04	1328±358	1.24	1616±451	did not increase islet yields beyond those with 10 μM concentration	–	–	–	–	–	–	–	–	–	–	–	–	–
C/C=C1/C(=C\c2[nH]c(/C=C3N=C(/C=C4/NC(=O)C(CC)=C4C)C(C)=C/3CCC(=O)O)c(CCC(=O)O)c2C)NC(=O)C1C (stereo not shown) [phycocyanobilin, reference compound]	poor and relatively inactive catalytic substrate	–	–	–	–	–	–	–	–	–	–	–	–	–	–	–	–	–	–
